Laboratory results as given in ChEMBL document CHEMBL4673219, “Novel 5,6-disubstituted pyrrolo[2,3-d]pyrimidine derivatives as broad spectrum antiproliferative agents: Synthesis, cell based assays, kinase profile and molecular docking study” (Bioorg Med Chem, 2018).

What was measured:
Format in all cases: functional
SK-MEL-28 = assay: Growth inhibition of human SK-MEL-28 cells assessed as growth percentage at 10 uM incubated for 48 hrs by sulforhodamine B assay relative to control; conditions: read-out: Activity
SR [1] = assay: Growth inhibition of human SR cells assessed as growth percentage at 0.01 uM incubated for 48 hrs by sulforhodamine B assay relative to control; conditions: read-out: Activity
HCT-116 [2] = assay: Antiproliferative activity against human HCT-116 cells assessed as cell growth inhibition measured after 72 hrs by MTT assay
BT-549 = assay: Growth inhibition of human BT-549 cells assessed as growth percentage at 0.1 uM incubated for 48 hrs by sulforhodamine B assay relative to control; conditions: read-out: Activity
T47D = assay: Growth inhibition of human T47D cells assessed as growth percentage at 100 uM incubated for 48 hrs by sulforhodamine B assay relative to control; conditions: read-out: Activity
OVCAR-8 [3] = assay: Growth inhibition of human OVCAR-8 cells assessed as growth percentage at 0.1 uM incubated for 48 hrs by sulforhodamine B assay relative to control; conditions: read-out: Activity
SF-268 = assay: Growth inhibition of human SF-268 cells incubated for 48 hrs by sulforhodamine B assay
HCT-116 [4] = assay: Growth inhibition of human HCT-116 cells assessed as growth percentage at 1 uM incubated for 48 hrs by sulforhodamine B assay relative to control; conditions: read-out: Activity
SF-539 = assay: Growth inhibition of human SF-539 cells assessed as growth percentage at 10 uM incubated for 48 hrs by sulforhodamine B assay relative to control; conditions: read-out: Activity
NCI-H23 = assay: Growth inhibition of human NCI-H23 cells incubated for 48 hrs by sulforhodamine B assay
SR [5] = assay: Growth inhibition of human SR cells incubated for 48 hrs by sulforhodamine B assay; conditions: for CC50: read-out: LC50 (the source's name)
M14 [6] = assay: Growth inhibition of human M14 cells assessed as growth percentage at 0.1 uM incubated for 48 hrs by sulforhodamine B assay relative to control; conditions: read-out: Activity
HOP-62 = assay: Growth inhibition of human HOP-62 cells assessed as growth percentage at 0.01 uM incubated for 48 hrs by sulforhodamine B assay relative to control; conditions: read-out: Activity
RPMI-8226 = assay: Growth inhibition of human RPMI-8226 cells assessed as growth percentage at 0.1 uM incubated for 48 hrs by sulforhodamine B assay relative to control; conditions: read-out: Activity
LOX IMVI = assay: Growth inhibition of human LOX IMVI cells assessed as growth percentage at 100 uM incubated for 48 hrs by sulforhodamine B assay relative to control; conditions: read-out: Activity
786-0 [7] = assay: Growth inhibition of human 786-0 cells assessed as growth percentage at 1 uM incubated for 48 hrs by sulforhodamine B assay relative to control; conditions: read-out: Activity
PC-3 [8] = assay: Growth inhibition of human PC-3 cells assessed as growth percentage at 0.01 uM incubated for 48 hrs by sulforhodamine B assay relative to control; conditions: read-out: Activity
UACC-62 [9] = assay: Growth inhibition of human UACC-62 cells assessed as growth percentage at 1 uM incubated for 48 hrs by sulforhodamine B assay relative to control; conditions: read-out: Activity
K562 [10] = assay: Growth inhibition of human K562 cells assessed as growth percentage at 10 uM incubated for 48 hrs by sulforhodamine B assay relative to control; conditions: read-out: Activity
SNB-75 [11] = assay: Growth inhibition of human SNB-75 cells assessed as growth percentage at 1 uM incubated for 48 hrs by sulforhodamine B assay relative to control; conditions: read-out: Activity
SNB-75 [12] = assay: Growth inhibition of human SNB-75 cells assessed as growth percentage at 0.1 uM incubated for 48 hrs by sulforhodamine B assay relative to control; conditions: read-out: Activity
MDA-MB-468 = assay: Growth inhibition of human MDA-MB-468 cells assessed as growth percentage at 100 uM incubated for 48 hrs by sulforhodamine B assay relative to control; conditions: read-out: Activity
SW-620 = assay: Growth inhibition of human SW-620 cells assessed as growth percentage at 0.01 uM incubated for 48 hrs by sulforhodamine B assay relative to control; conditions: read-out: Activity
K562 [13] = assay: Growth inhibition of human K562 cells assessed as growth percentage at 0.1 uM incubated for 48 hrs by sulforhodamine B assay relative to control; conditions: read-out: Activity
SNB-19 = assay: Growth inhibition of human SNB-19 cells assessed as growth percentage at 100 uM incubated for 48 hrs by sulforhodamine B assay relative to control; conditions: read-out: Activity
OVCAR-8 [14] = assay: Growth inhibition of human OVCAR-8 cells assessed as growth percentage at 100 uM incubated for 48 hrs by sulforhodamine B assay relative to control; conditions: read-out: Activity
Hs-578T [15] = assay: Growth inhibition of human Hs-578T cells assessed as growth percentage at 100 uM incubated for 48 hrs by sulforhodamine B assay relative to control; conditions: read-out: Activity
K562 [16] = assay: Growth inhibition of human K562 cells assessed as growth percentage at 0.01 uM incubated for 48 hrs by sulforhodamine B assay relative to control; conditions: read-out: Activity
786-0 [17] = assay: Growth inhibition of human 786-0 cells assessed as growth percentage at 0.1 uM incubated for 48 hrs by sulforhodamine B assay relative to control; conditions: read-out: Activity
TK-10 = assay: Growth inhibition of human TK-10 cells assessed as growth percentage at 100 uM incubated for 48 hrs by sulforhodamine B assay relative to control; conditions: read-out: Activity
Hs-578T [18] = assay: Growth inhibition of human Hs-578T cells incubated for 48 hrs by sulforhodamine B assay
A498 = assay: Growth inhibition of human A498 cells assessed as growth percentage at 0.1 uM incubated for 48 hrs by sulforhodamine B assay relative to control; conditions: read-out: Activity
A549 [19] = assay: Growth inhibition of human A549/ATCC cells incubated for 48 hrs by sulforhodamine B assay
MCF7 = assay: Growth inhibition of human MCF7 cells assessed as growth percentage at 10 uM incubated for 48 hrs by sulforhodamine B assay relative to control; conditions: read-out: Activity
KM12 = assay: Growth inhibition of human KM12 cells assessed as growth percentage at 1 uM incubated for 48 hrs by sulforhodamine B assay relative to control; conditions: read-out: Activity
M14 [20] = assay: Growth inhibition of human M14 cells assessed as growth percentage at 1 uM incubated for 48 hrs by sulforhodamine B assay relative to control; conditions: read-out: Activity
Hs-578T [21] = assay: Growth inhibition of human Hs-578T cells assessed as growth percentage at 0.01 uM incubated for 48 hrs by sulforhodamine B assay relative to control; conditions: read-out: Activity
PC-3 [22] = assay: Growth inhibition of human PC-3 cells assessed as growth percentage at 0.1 uM incubated for 48 hrs by sulforhodamine B assay relative to control; conditions: read-out: Activity
UACC-62 [23] = assay: Growth inhibition of human UACC-62 cells assessed as growth percentage at 0.1 uM incubated for 48 hrs by sulforhodamine B assay relative to control; conditions: read-out: Activity
A549 [24] = assay: Growth inhibition of human A549/ATCC cells assessed as growth percentage at 1 uM incubated for 48 hrs by sulforhodamine B assay relative to control; conditions: read-out: Activity

Nc1nc2[nH]c(CN3CCN(c4cc(Cl)cc(Cl)c4)CC3)c(CN3CCN(c4cc(Cl)cc(Cl)c4)CC3)c2c(=O)[nH]1
growth at 10 µM (SK-MEL-28): 90.8%
growth at 0.01 µM (SR [1]): 102%
GI50 (HCT-116 [2]): 2890 nM
growth at 0.1 µM (BT-549): 92%
growth at 100 µM (T47D): -44%
growth at 0.1 µM (OVCAR-8 [3]): 97%
GI50 (SF-268): 1770 nM
TGI (SF-268): 3.35 µM
growth at 1 µM (HCT-116 [4]): 87%
growth at 10 µM (SF-539): 84.5%
GI50 (NCI-H23): 2030 nM
TGI (NCI-H23): 3.96 µM
GI50 (SR [5]; Homo sapiens, SR): 1460 nM
TGI (SR [5]; Homo sapiens, SR): 4460 nM
CC50 (SR [5]): > 100 µM
growth at 0.1 µM (M14 [6]): 98%
growth at 0.01 µM (HOP-62): 81%
growth at 0.1 µM (RPMI-8226): 102%
growth at 100 µM (LOX IMVI): -35%
growth at 1 µM (786-0 [7]): 82%
growth at 0.01 µM (PC-3 [8]): 97%
growth at 1 µM (UACC-62 [9]): 96%
growth at 10 µM (K562 [10]): -17.6%
growth at 1 µM (SNB-75 [11]): 76%
growth at 0.1 µM (SNB-75 [12]): 89%
growth at 100 µM (MDA-MB-468): -44%
growth at 0.01 µM (SW-620): 96%
growth at 0.1 µM (K562 [13]): 96%
growth at 100 µM (SNB-19): -16%
growth at 100 µM (OVCAR-8 [14]): -44%
growth at 100 µM (Hs-578T [15]): -25%
growth at 0.01 µM (K562 [16]): 108%
growth at 0.1 µM (786-0 [17]): 93%
growth at 100 µM (TK-10): -69%
GI50 (Hs-578T [18]): 1780 nM
TGI (Hs-578T [18]): 4.22 µM
growth at 0.1 µM (A498): 82%
TGI (A549 [19]; Homo sapiens, A549): 3730 nM
GI50 (A549 [19]; Homo sapiens, A549, 48 h): 1820 nM
growth at 10 µM (MCF7): 23.4%
growth at 1 µM (KM12): 99%
growth at 1 µM (M14 [20]): 94%
growth at 0.01 µM (Hs-578T [21]): 89%
growth at 0.1 µM (PC-3 [22]): 96%
growth at 0.1 µM (UACC-62 [23]): 102%
growth at 1 µM (A549 [24]): 92%

CCCCCCCC(=O)Nc1nc2[nH]c(CN3CCN(Cc4cccc(F)c4)CC3)c(CN3CCN(Cc4cccc(F)c4)CC3)c2c(=O)[nH]1
growth at 10 µM (SK-MEL-28): -97%
growth at 0.01 µM (SR [1]): 92%
GI50 (HCT-116 [2]): 2250 nM
growth at 0.1 µM (BT-549): 85%
growth at 100 µM (T47D): -68%
growth at 0.1 µM (OVCAR-8 [3]): 103%
GI50 (SF-268): 1260 nM
LC50 (SF-268): 5.73 µM
TGI (SF-268): 2.68 µM
growth at 1 µM (HCT-116 [4]): -91%
growth at 10 µM (SF-539): -96.9%
GI50 (NCI-H23): 1860 nM
LC50 (50% lethal concentration) (NCI-H23): 8.02 µM
TGI (NCI-H23): 3.86 µM
GI50 (SR [5]): 210 nM
TGI (SR [5]): 550 nM
GI50 (SR [5]; Homo sapiens, SR): 208 nM
TGI (SR [5]; Homo sapiens, SR): 548 nM
CC50 (SR [5]; Homo sapiens, SR): > 100 µM
growth at 0.1 µM (M14 [6]): 94%
growth at 0.01 µM (HOP-62): 99%
growth at 0.1 µM (RPMI-8226): 97%
growth at 100 µM (LOX IMVI): -75%
growth at 1 µM (786-0 [7]): 83%
growth at 0.01 µM (PC-3 [8]): 98%
growth at 1 µM (UACC-62 [9]): 92%
growth at 10 µM (K562 [10]): -65.6%
growth at 1 µM (SNB-75 [11]): 71%
growth at 0.1 µM (SNB-75 [12]): 82%
growth at 100 µM (MDA-MB-468): -75%
growth at 0.01 µM (SW-620): 96%
growth at 0.1 µM (K562 [13]): 87%
growth at 100 µM (SNB-19): -83%
growth at 100 µM (OVCAR-8 [14]): -81%
growth at 100 µM (Hs-578T [15]): -40%
growth at 0.01 µM (K562 [16]): 102%
growth at 0.1 µM (786-0 [17]): 92%
growth at 100 µM (TK-10): -91%
GI50 (Hs-578T [18]): 1720 nM
TGI (Hs-578T [18]): 4.18 µM
growth at 0.1 µM (A498): 76%
GI50 (A549 [19]; 48 h): 340 nM
LC50 (A549 [19]; Homo sapiens, A549): 4.36 µM
TGI (A549 [19]; Homo sapiens, A549): 1240 nM
GI50 (A549 [19]; Homo sapiens, A549, 48 h): 343 nM
growth at 10 µM (MCF7): -72.9%
growth at 1 µM (KM12): 43%
growth at 1 µM (M14 [20]): -47%
growth at 0.01 µM (Hs-578T [21]): 97%
growth at 0.1 µM (PC-3 [22]): 96%
growth at 0.1 µM (UACC-62 [23]): 100%
growth at 1 µM (A549 [24]): 8%
